Experimental data published in patent US11013726B2 (Arbutus Biopharma Corporation, priority 2016, dated 2021).

These compounds were tested on HBsAg (assay: HBsAg assay). Conditions: Hepatitis B virus, HepG2.2.15, 144 h, read-out: sAg EC50, μM, HepG2.2.15 cells, day 6.
Assay type: cell-based, hepatitis B virus
In short: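 HepG2.2.15 cells were treated with serially diluted compounds (0.5% DMSO), with medium and compound renewed after 2-3 days. Secreted HBsAg measured at day 6 by chemiluminescence immunoassay; EC50 from dose-response curves. Viability assessed in parallel by CellTiter-Glo.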
Compound `COCCCOc1cc2c(cc1Cl)-c1cc(=O)c(NC(=O)OCC(C)(C)C)cn1C(C(C)(C)C)C2` (stereo not drawn) [Example 124, Neopentyl (6-(tert-butyl)-10-chloro-9-(3-methoxypropoxy)-2-oxo-6,7-dihydro-2H-pyrido[2,1-a]isoquinolin-3-yl)carbamate] has an EC50 of 16 µM.
`COCCCOc1cc2c(cc1Cl)-c1cc(=O)c(N3C(=O)CCC3=O)cn1C(C(C)(C)C)C2` (stereo not drawn) [Example 125, 1-[6-Tert-butyl-10-chloro-9-(3-methoxypropoxy)-2-oxo-6H,7H-pyrido[2,1-a]isoquinolin-3-yl]pyrrolidine-2,5-dione] showed an EC50 of 12 µM.
`COCCCOc1cc2c(cc1Cl)-c1cc(=O)c(NC(=O)NC(C)(C)C)cn1C(C(C)(C)C)C2` (stereo not drawn) [Example 126, 3-Tert-butyl-1-[6-tert-butyl-10-chloro-9-(3-methoxypropoxy)-2-oxo-6H,7H-pyrido[2,1-a]isoquinolin-3-yl]urea] showed an EC50 of 6.1 µM.
In the case of `COCCCOc1cc2c(cc1Cl)-c1cc(=O)c(NS(=O)(=O)CC(F)(F)F)cn1C(C(C)(C)C)C2` (stereo not drawn) [Example 127, N-[6-Tert-butyl-10-chloro-9-(3-methoxypropoxy)-2-oxo-6H,7H-pyrido[2,1-a]isoquinolin-3-yl]-2,2,2-trifluoroethanesulfonamide], the EC50 is reported as 15 µM.
In the case of `COCCCOc1cc2c(cc1Cl)-c1cc(=O)c(NS(=O)(=O)C(F)(F)F)cn1C(C(C)(C)C)C2` (stereo not drawn) [Example 128, N-(6-(Tert-butyl)-10-chloro-9-(3-methoxypropoxy)-2-oxo-6,7-dihydro-2H-pyrido[2,1-a]isoquinolin-3-yl)-1,1,1-trifluoromethanesulfonamide], the EC50 is reported as 4.7 µM.
Compound `COCCCOc1cc2c(cc1Cl)-c1cc(=O)c(Nc3ncccn3)cn1C(C(C)(C)C)C2` (stereo not drawn) [Example 129, 6-(Tert-butyl)-10-chloro-9-(3-methoxypropoxy)-3-(pyrimidin-2-ylamino)-6,7-dihydro-2H-pyrido[2,1-a]isoquinolin-2-one] has an EC50 of 5.9 µM.
With `COCCCOc1cc2c(cc1Cl)-c1cc(=O)c(N(c3ncccn3)c3ncccn3)cn1C(C(C)(C)C)C2` (stereo not drawn) [Example 130, 6-(Tert-butyl)-10-chloro-3-(di(pyrimidin-2-yl)amino)-9-(3-methoxypropoxy)-6,7-dihydro-2H-pyrido[2,1-a]isoquinolin-2-one] the EC50 was 0.91 µM.
In the case of `COCCCOc1cc2c(cc1Cl)-c1cc(=O)c(I)cn1C(C(C)(C)C)C2` (stereo not drawn) [Example 131, 6-Tert-butyl-10-chloro-3-iodo-9-(3-methoxypropoxy)-6H,7H-pyrido[2,1-a]isoquinolin-2-one], the EC50 is reported as 2.4 µM.
`COCCCOc1cc2c(cc1Cl)-c1cc(=O)c(-c3ncccn3)cn1C(C(C)(C)C)C2` (stereo not drawn) [Example 132, 6-Tert-butyl-10-chloro-9-(3-methoxypropoxy)-3-(pyrimidin-2-yl)-6H,7H-pyrido[2,1-a]isoquinolin-2-one] showed an EC50 of 0.078 µM.
For `COCCCOc1cc2c(cc1Cl)-c1cc(=O)c(-c3ccccn3)cn1C(C(C)(C)C)C2` (stereo not drawn) [Example 133, 6-(Tert-butyl)-10-chloro-9-(3-methoxypropoxy)-3-(pyridin-2-yl)-6,7-dihydro-2H-pyrido[2,1-a]isoquinolin-2-one], the EC50 was 4 µM.
For `COCCCOc1cc2c(cc1Cl)-c1cc(=O)c(NC(=O)OC(C)(C)C)cn1[C@H](C(C)C)CO2` [Example 134, Tert-butyl (R)-(2-chloro-7-isopropyl-3-(3-methoxypropoxy)-11-oxo-6,7-dihydro-11H-benzo[f]pyrido[1,2-d][1,4]oxazepin-10-yl)carbamate], the EC50 was 45 µM.
For `COCCCOc1cc2c(cc1Cl)-c1cc(=O)c(-c3ncccn3)cn1[C@H](C(C)C)CO2` [Example 135, (R)-2-Chloro-7-isopropyl-3-(3-methoxypropoxy)-10-(pyrimidin-2-yl)-6,7-dihydro-11H-benzo[f]pyrido[1,2-d][1,4]oxazepin-11-one], the EC50 was 2 µM.
For `COCCCOc1cc2c(cc1Cl)-c1cc(=O)ccn1[C@H](C(C)C)CO2` [Example 136, (R)-2-Chloro-7-isopropyl-3-(3-methoxypropoxy)-6,7-dihydro-11H-benzo[f]pyrido[1,2-d][1,4]oxazepin-11-one], the EC50 was 0.57 µM.
In the case of `COCCCOc1cc2c(cc1Cl)-c1cc(=O)c(-c3ncccc3C)cn1[C@H](C(C)C)CO2` [Example 137, (R)-2-Chloro-7-isopropyl-3-(3-methoxypropoxy)-10-(3-methylpyridin-2-yl)-6,7-dihydro-11H-benzo[f]pyrido[1,2-d][1,4]oxazepin-11-one], the EC50 is reported as 10 µM.
`COCCCOc1cc2c(cc1Cl)-c1cc(=O)c(-c3ccccn3)cn1[C@H](C(C)C)CO2` [Example 138, (R)-2-Chloro-7-isopropyl-3-(3-methoxypropoxy)-10-(pyridin-2-yl)-6,7-dihydro-11H-benzo[f]pyrido[1,2-d][1,4]oxazepin-11-one] showed an EC50 of 12 µM.
Compound `COCCCOc1cc2c(cc1Cl)-c1cc(=O)c(OC)cn1[C@H](C(C)C)CO2` [Example 139, (R)-2-Chloro-7-isopropyl-10-methoxy-3-(3-methoxypropoxy)-6,7-dihydro-11H-benzo[f]pyrido[1,2-d][1,4]oxazepin-11-one] has an EC50 of 14 µM.
In the case of `COCCCOc1cc2c(cc1Cl)-c1cc(=O)c(B(O)O)cn1[C@H](C(C)C)CO2` [Example 140, (R)-(2-Chloro-7-isopropyl-3-(3-methoxypropoxy)-11-oxo-6,7-dihydro-11H-benzo[f]pyrido[1,2-d][1,4]oxazepin-10-yl)boronic acid], the EC50 is reported as 2.1 µM.
`COCCCOc1cc2c(cc1Cl)-c1cc(=O)c(N(C)C(=O)OC(C)(C)C)cn1[C@H](C(C)C)CO2` [Example 141, Tert-butyl (R)-(2-chloro-7-isopropyl-3-(3-methoxypropoxy)-11-oxo-6,7-dihydro-11H-benzo[f]pyrido[1,2-d][1,4]oxazepin-10-yl)(methyl)carbamate] was tested, and the EC50 was 1 µM.
`COCCCOc1cc2c(nc1OC)-c1cc(=O)c(C(C)=O)cn1C(C(C)C)C2` (stereo not drawn) [Example 142, 9-Acetyl-6-isopropyl-2-methoxy-3-(3-methoxypropoxy)-5,6-dihydro-10H-pyrido[1,2-h][1,7]naphthyridin-10-one] gave an EC50 of 0.62 µM.
`COCCCOc1cc2c(nc1OC)-c1cc(=O)c(C(C)(C)O)cn1C(C(C)C)C2` (stereo not drawn) [Example 143, 9-(2-Hydroxypropan-2-yl)-6-isopropyl-2-methoxy-3-(3-methoxypropoxy)-5,6-dihydro-10H-pyrido[1,2-h][1,7]naphthyridin-10-one] showed an EC50 of 0.91 µM.
In the case of `COCCCOc1cc2c(cc1Cl)-c1cc(=NO)c(C(=O)OC)cn1C(C(C)(C)C)C2` (stereo not drawn) [Example 144, Methyl 6-tert-butyl-10-chloro-2-(hydroxyimino)-9-(3-methoxypropoxy)-6H,7H-pyrido[2,1-a]isoquinoline-3-carboxylate], the EC50 is reported as 0.17 µM.
Work on `COCCCOc1cc2c(cc1Cl)-c1cc(=NO)c(C(=O)O)cn1C(C(C)(C)C)C2` (stereo not drawn) [Example 145, 6-Tert-butyl-10-chloro-2-(hydroxyimino)-9-(3-methoxypropoxy)-6H,7H-pyrido[2,1-a]isoquinoline-3-carboxylic acid] yielded an EC50 of 0.15 µM.
`COCCCOc1cc2c(cc1Cl)-c1cc3noc(=O)c-3cn1C(C(C)(C)C)C2` (stereo not drawn) [Example 146, 6-(Tert-butyl)-2-chloro-3-(3-methoxypropoxy)-5,6-dihydro-9H-isoxazolo[3′,4′:4,5]pyrido[2,1-a]isoquinolin-9-one] showed an EC50 of 0.031 µM.
For `CN=c1cc2n(cc1C(=O)O)C(C(C)C)Cc1cc(OCCCOC)c(OC)cc1-2` (stereo not drawn) [Example 147], the EC50 was 0.65 µM.
`COCCCOc1cc2c(cc1OC)-c1cc(=NOC)c(C(=O)OC)cn1C(C(C)C)C2` (stereo not drawn) [Example 148, Methyl 6-isopropyl-10-methoxy-2-(methoxyimino)-9-(3-methoxypropoxy)-6,7-dihydro-2H-pyrido[2,1-a]isoquinoline-3-carboxylate] was tested, and the EC50 was 13 µM.
For `COCCCOc1cc2c(cc1OC)-c1cc(=NOC)c(C(=O)O)cn1C(C(C)C)C2` (stereo not drawn) [Example 149], the EC50 was 7.4 µM.
For `CCOC(=O)c1cn2c(cc1=NO)-c1cc(Cl)c(OC)cc1OCC2C(C)C` (stereo not drawn) [Example 150, Ethyl 2-chloro-11-(hydroxyimino)-7-isopropyl-3-methoxy-6,7-dihydro-11H-benzo[f]pyrido[1,2-d][1,4]oxazepine-10-carboxylate], the EC50 was 24 µM.
For `COc1cc2c(cc1Cl)-c1cc3noc(=O)c-3cn1C(C(C)C)CO2` (stereo not drawn) [Example 151, 2-Chloro-7-isopropyl-3-methoxy-6,7-dihydro-10H-benzo[f]isoxazolo[3′,4′:4,5]pyrido[1,2-d][1,4]oxazepin-10-one], the EC50 was 13 µM.
`COCCCOc1cc2c(nc1OC)-c1cc(=NN)c(C(=O)NN)cn1[C@H](C(C)C)C2` [Example 152, (6S,10)-10-Hydrazinylidene-6-isopropyl-2-methoxy-3-(3-methoxypropoxy)-5H,6H-pyrido[1,2-h]1,7-naphthyridine-9-carbohydrazide] was tested, and the EC50 was 0.03 µM.
With `COCCCOc1cc2c(nc1OC)-c1cc3n[nH]c(=O)c-3cn1[C@H](C(C)C)C2` [Example 153, (S)-6-Isopropyl-2-methoxy-3-(3-methoxypropoxy)-5,10-dihydropyrazolo[3′,4′:4,5]pyrido[1,2-h][1,7]naphthyridin-9(6H)-one] the EC50 was 0.23 µM.
In the case of `COCCCOc1cc2c(nc1OC)-c1cc(=O)c(C(=O)NNC(C)=O)cn1[C@H](C(C)C)C2` [Example 154, (6S)—N′-Acetyl-6-isopropyl-2-methoxy-3-(3-methoxypropoxy)-10-oxo-5H,6H-pyrido[1,2-h]1,7-naphthyridine-9-carbohydrazide], the EC50 is reported as 0.029 µM.
For `COCCCOc1cc2c(nc1OC)-c1cc(=O)c(C(=O)O)cn1C(C)(C(C)C)C2` (stereo not drawn) [Example 155, 6-Isopropyl-2-methoxy-3-(3-methoxypropoxy)-6-methyl-10-oxo-5,10-dihydro-6H-pyrido[1,2-h][1,7]naphthyridine-9-carboxylic acid], the EC50 was 0.002 µM.
Work on `COCCCOc1cc2c(nc1OC)-c1cc(=O)c(C(=O)O)cn1C(C)(C(C)(C)C)C2` (stereo not drawn) [Example 158, 6-(Tert-butyl)-2-methoxy-3-(3-methoxypropoxy)-6-methyl-10-oxo-5,10-dihydro-6H-pyrido[1,2-h][1,7]naphthyridine-9-carboxylic acid] yielded an EC50 of 0.001 µM.
